We go through six compounds from patent US6225345A, “Azahexane derivatives as substrate isosters of retroviral asparate proteases” (Novartis AG, priority 1995, dated 2001).

In general, IC50 refers to the concentration that inhibits the measured activity by half.

Each structure is given as a SMILES string.

In one series the target is T1, HIV-1-protease (Human immunodeficiency virus type 1 group M subtype B, UniProt P04585).
T1 construct: made in house
Briefly: HIV-1-protease inhibition with icosapeptide substrate […] (HPLC). Conditions: pH 6.0, 37° C., 1 hour, icosapeptide 122 μM. The series is classed as biochemical. Here is the method:
The inhibitory action of the compounds of formula I on the proteolytic activity of HIV-1-protease can be shown, for example, analogously to the method described by A. D. Richards et al., J. Biol. Chem. 265(14), 7733-7736 (1990). In that method the inhibition of the action of HIV-1-protease (prepared in accordance with S. Billich et al., J. Biol. Chem. 263(34), 17905-17908 (1990)) is measured in the presence of the icosapeptide […] SEQ ID NO:1, a synthetic substrate of HIV-1-protease, prepared by peptide synthesis in accordance with known procedures, see J. Schneider et al., Cell 54, 363-368 (1988)), which contains as substrate analogue one of the cleavage sites of the gag-precursor protein (natural substrate of HIV-1-protease). That substrate and its cleavage products are analysed by high performance liquid chromatography (HPLC).
The test compound is dissolved in dimethyl sulfoxide. The enzymatic test is carried out by adding suitable dilutions of the inhibitor in 20 mM β-morpholinoethanesulfonic acid (MES) buffer pH 6.0 to the test mixture. That mixture consists of the above-mentioned iscosapeptide (122 μM) in 20 mM MES-buffer pH 6.0. 100 μl are used per test batch. The reaction is started by the addition of […] of HIV-1-protease solution and is stopped after one hours incubation at 37° C. by the addition of 10 μl of 0.3M HClO4. After centrifugation of the sample at 10,000×g for 5 minutes, […] of the resulting supernatant are applied to a 125×4.6 mm Nucleosil® C18-5m-HPLC column (reversed-phase material supplied by Macherey & Nagel, Duren, FRG, based on silica gel that has been charged with C18 alkyl chains). The uncleaved icosapeptide and its cleavage products are eluted from the column by means of the following gradient: 100% eluant 1→50% eluant 1+50% eluant 2 (eluant 1: 10% acetonitrile, 90% H2 O, 0.1% trifluoroacetic acid (TFA); eluant 2: 75% acetonitrile, 25% H2 O, 0.08% TFA) for 15 minutes, throughflow rate 1 ml/min. The quantification of the eluted peptide fragments is carried out by measuring the peak height of the cleavage product at 215 nm.
In the test system described above (with […]), SEQ ID NO:1 the following IC50 values are obtained for Examples 1 to 5: […]

A short description of another series: in vivo. Particulars: mouse, po, 120 mg/kg.
A further series concerns HIV-1/MN in MT-2-cells. Briefly: Protection of HIV-1/MN-infected MT-2-cells, reverse transcriptase activity. The series is classed as cell-based. Conditions: Human immunodeficiency virus 1, MT2, 96 h; 90% reduction of RT activity; HIV-1-infected MT-2-cells; 4 days; read-out: ED90 (the source's name). The text has this:
In a further test it can be shown that compounds of formula I protect cells normally infected by HIV from such an infection or at least slow down such an infection. For this test, MT-2-cells infected with HIV-1/MN are used. MT-2-cells have been transformed with a continuous producer of HTLV-1 (a virus causing leukaemia); they are therefore especially sensitive to the cytopathogenic effect of HIV. MT-2-cells can be obtained via the AIDS Research and Reference Reagent Program, Division of AIDS, NIAID, NIH from Dr. Douglas Richman (see J. Biol. Chem. 263, 5870-5875 (1988) and also Science 229, 563-566 (1985)). The MT-2-cells are cultured in RPMI 1640-medium (Gibco, Scotland; RPMI comprises an amino acid mixture without glutamine) supplemented with 10% heat-inactivated foetal calf serum, glutamine and standard antibiotics. In all cases the cells, and also the virus stock solution used for the infection (HIV-1/MN), are free of mycoplasms. The virus stock solution is prepared as a cell culture supernatant of the permanently infected cell line H9/HIV-1/MN, which can likewise be obtained via the AIDS Research and Reference Program, Division of AIDS, NIAID, NIH from Dr. Robert Gallo (see also Science 224, 500-503 (1984) and Science 226, 1165-1170 (1984)). The titre of the HIV-1/MN virus stock solution (determined by titration onto MT-2-cells) is 4.2×10^5 TCID50/ml (TCID50=Tissue Culture Infective Dose=dose that infects 50% of the MT-2-cells). In order to measure the infection-inhibiting action of the compounds of formula I, 50 μl of the test compound in question in culture medium and 2800 TCID50 of HIV-1/MN in 100 μl of culture medium are added to 2×10^4 exponentially growing MT-2-cells which have been applied in 50 μl of culture medium to 96-well microtitre plates (having a round base). After 4 days' incubation (at 37° C., 5% CO2) a 10 μl sample of the supernatant is taken from each well, transferred to a further 96-well microtitre plate and (if necessary) stored at -20° C. In order to measure the activity of the virus-associated reverse transcriptase, 30 μl of reverse transcriptase (RT) cocktail are added to each sample. The reverse transcriptase cocktail consists of 50 mM Tris (α,α,α-tris(hydroxymethyl)methylamine, Ultra pur, Merck, Germany) pH 7.8; 75 mM KCl, 2 mM dithiothreitol, 5 mM MgCl2; 0.1% Nonidet P40 (detergent; Sigma, Switzerland), 0.8 mM EDTA, 10 μg/ml Poly-A (Pharmacia, Uppsala, Sweden) and 0.16 μg/ml oligo(T) (=pdT(12-18), Pharmacia, Uppsala, Sweden) as "template primer"--if desired, the mixture is filtered through a […] Acrodisc filter (Gelman Sciences Inc., Ann Arbor, USA). It is stored at -20° C. Prior to the test, 0.1% (v/v) [alpha-^32 P]dTTP is added to aliquots of the solution in order to establish a final radioactivity of 10 μCi/ml.
After mixing, the plate is incubated for 2 hours at 37° C. 5 μl of the reaction mixture are transferred to DE81 paper (Whatman, one filter per well). The dried filters are washed three times for 5 minutes with 300 mM NaCl/25 mM trisodium citrate and then once with ethanol and again dried in the air. The radioactivity on the filters is measured in a Matrix Packard 96-well counter (Packard, Zurich, Switzerland). The ED90 values are calculated and are defined as the concentration of the test compound that reduces the RT activity by 90% in comparison with a control without test compound. […]

In a further series the test system is HIV-protease. Particulars: cited from earlier work.
In the next series the test system is virus replication. Particulars: in words; cited from earlier work.
The conditions of series [1]: in vivo, po; cited from earlier work.
For series [2] the following is noted: in vivo; cited from earlier work.
Series [3] concerns CD4-lymphocytes in the blood. Conditions: AIDS patients, in words; cited from earlier work.

Procedure for in vivo: In order to determine their pharmacokinetics, the compounds of formula I are dissolved in dimethyl sulfoxide (DMSO) in a concentration of 240 mg/ml. The resulting solutions are diluted 1:20 (v/v) with 20% (w/v) aqueous hydroxypropyl-β-cyclodextrin solution in order to obtain a concentration of the test compound in question of 12 mg/ml. The resulting solution is treated briefly with ultrasound and administered orally to female BALB/c mice (Bomholt-garden, Copenhagen, Denmark) by artificial tube feeding at a dose of 120 mg/kg. At fixed times (for example 30, 60, 90, 120 min) after administration, mice are sacrificed and the plasma stored in heparinised test tubes. The blood is centrifuged (12,000×g, 5 min) and the plasma removed. The plasma is deproteinised by the addition of an equal volume of acetonitrile. The mixture is mixed using a vortex mixer and left to stand at room temperature for 20 to 30 minutes. The precipitate is pelleted by centrifugation (12,000×g, 5 min), and the concentration of the test compound is determined by reversed phase high performance liquid chromatography (HPLC).
The HPLC analysis of the samples obtained in accordance with the method described above is carried out on a 125×4.6 mm Nucleosil® C18 -column (reversed-phase material supplied by Macherey & Nagel, Duren, Germany, based on silica gel derivatised with carbon radicals having 18 carbon atoms), using a 2 cm long preliminary column of the same column material. The test is carried out with the following linear acetonitrile/water gradient (in each case in the presence of 0.05% trifluoroacetic acid): 20% acetonitrile to 100% acetonitrile for 20 min; then 5 min 100% acetonitrile; then returning to the initial conditions for 1 min and 4 min reequilibration. The flow rate is 1 ml/min. […] The test compound is detected by UV absorption measurement at 255 nm. Peaks are identified by the retention time and the UV spectrum between 205 and 400 nm. The concentrations are determined by the external standard method; the peak heights are obtained for determining the concentrations by comparison with standard curves.

Consider `COC(=O)N[C@H](C(=O)N[C@@H](Cc1ccccc1)[C@@H](O)CN(Cc1ccc(-c2ccccc2)cc1)NC(=O)[C@@H](NC(=O)OC)C(C)(C)C)C(C)C` [Example 1, 1-(4-Biphenylyl)-2-N-(N-methoxycarbonyl-(L)-tert-leucyl)-amino-4(S)-hydroxy-5(S)-N-(N-methoxycarbonyl-(L)-valyl)-amino-6-phenyl-2-azahexane], for which the midpoint of inhibition on HIV-1-protease, the IC50, lay at 51 nM. Further, in the series “in vivo”, the concentration at 0.5 h is 6330 nM and the concentration at 1.5 h turned out to be 5350 nM. Further, in the series with HIV-1/MN in MT-2-cells, the EC90 was determined as 3000 nM.

`COC(=O)N[C@H](C(=O)NN(Cc1ccc(-c2ccccc2)cc1)C[C@H](O)[C@H](Cc1ccccc1)NC(=O)[C@@H](NC(=O)OC)C(C)(C)C)C(C)C` [Example 2, 1-(4-Biphenylyl)-2-N-(N-methoxycarbonyl-(L)-valinyl)-amino-4(S)-hydroxy-5(S)-N-(N-methoxycarbonyl-(L)-tert-leucyl)-amino-6-phenyl-2-azahexane] showed an IC50 at HIV-1-protease of 85 nM. In the series “in vivo”, this compound displayed a concentration at 0.5 h of 640 nM and a concentration at 1.5 h of 1110 nM. Further, the EC90 in the series on HIV-1/MN in MT-2-cells came out at 3000 nM.

`COC(=O)N[C@H](C(=O)NN(Cc1ccc(-c2ccccc2C#N)cc1)C[C@H](O)[C@H](Cc1ccccc1)NC(=O)[C@@H](NC(=O)OC)C(C)(C)C)C(C)C` [Example 3, 1-[4-(2-Cyanophenyl)phenyl]-2-N-(N-methoxycarbonyl-(L)-valyl)-amino-4(S)-hydroxy-5(S)-N-(N-methoxycarbonyl-(L)-tert-leucyl)-amino-6-phenyl-2-azahexane] had an IC50 against HIV-1-protease of 38 nM. Further, in “in vivo”, the concentration at 0.5 h was 1420 nM and the concentration at 1.5 h amounted to 1950 nM. Besides, the EC90 in the series with HIV-1/MN in MT-2-cells was 10000 nM.

For `COC(=O)N[C@H](C(=O)N[C@@H](Cc1ccccc1)[C@@H](O)CN(Cc1ccc(-c2ccccc2C#N)cc1)NC(=O)[C@@H](NC(=O)OC)C(C)(C)C)C(C)C` [Example 4, 1-[4-(2-Cyanophenyl)phenyl)-2-N-(N-methoxycarbonyl-(L)-tert-leucyl)-amino-4(S)-hydroxy-5(S)-N-(N-methoxycarbonyl-(L)-valyl)-amino-6-phenyl-2-azahexane], at HIV-1-protease, the midpoint of inhibition, the IC50, lay at 43 nM. Moreover, in “in vivo”, the concentration at 0.5 h was found to be 1680 nM and the concentration at 1.5 h was 1930 nM. The EC90 in the series on HIV-1/MN in MT-2-cells was 3000 nM.

On to `COC(=O)N[C@H](C(=O)N[C@@H](Cc1ccccc1)[C@@H](O)CN(Cc1ccc(-c2ccccc2)cc1)NC(=O)[C@@H](NC(=O)OC)C(C)(C)C)C(C)(C)C` [Example 5, 1-(4-Biphenylyl)-4(S)-hydroxy-5(S)-2,5-bis[N-(N-methoxycarbonyl-(L)-tert-leucyl)-amino]-6-phenyl-2-azahexane], for which the half-maximal inhibitory concentration (IC50) at HIV-1-protease turned out to be 58 nM. In “in vivo”, this compound came in with a concentration at 0.5 h of 5530 nM and a concentration at 1.5 h of 4910 nM. Further, the EC90 in the series on HIV-1/MN in MT-2-cells was 3000 nM.

On to `CC(C)(C)NC(=O)[C@@H]1C[C@@H]2CCCC[C@@H]2CN1C[C@@H](O)[C@H](Cc1ccccc1)NC(=O)[C@H](CC(N)=O)NC(=O)c1ccc2ccccc2n1` [Ro 31-8959, N-tert-butyl-decahydro-2-[2(R)-hydroxy-4-phenyl-3(S)-[[N-2-quinolyl-carbonyl-L-asparaginyl]amino]butyl]-(4aS,8aS)-isoquinoline-3(S)-carboxamide], for which, in the series with HIV-protease, the “inhibitory action against HIV-protease in vitro” value is reported as “exhibits an inhibitory action”. In the series on virus replication, the “virus replication in cell experiments” value is recorded as “suppression of virus replication”. Further, the “blood levels in rodents” value in series [1] was “blood levels that are still usable”. In addition, the “blood levels in humans” value in series [2] is “usable blood levels”. Also, in series [3], the “surrogate-marker (titre of the CD4-lymphocytes)” value is on record as “initial positive effects”.
